Experimental data taken from patent US8802597B2, “Herbicidal pyrimidines” (E I du Pont de Nemours and Company, priority 2003, dated 2014).
Like-named read-outs stand apart in the source and are kept apart here.

Columns and labels:
Experiment in all cases: Test C pre/postemergence
Assay type in all cases: in vivo
[1] = tested on: crabgrass (Digitaria sanguinalis); details: for pest or weed control at 16 g/ha: 16 g ai/ha
In short: (§1)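 Test compounds, formulated in a non-phytotoxic solvent mix with surfactant, were applied to freshly planted seeds and, at the same time, to emerged plants at 1- to 4-leaf stage (2 to 18 cm). After 12 to 14 days in the greenhouse, response was scored visually versus controls, 0 = no effect, 100 = complete control.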

[2] = tested on: lambsquarters (Chenopodium album); details: for pest or weed control at 16 g/ha: 16 g ai/ha; for pest or weed control at 62 g/ha: 62 g ai/ha
In short: as §1

kochia (Kochia scoparia) = details: for pest or weed control at 31 g/ha: 31 g ai/ha
In short: as §1

[3] = tested on: cocklebur (Xanthium strumarium); details: for Plant response rating, Cocklebur: Preemergence
In short: as §1

[4] = tested on: common (oilseed) sunflower (Helianthus annuus); details: Preemergence, scale 0 to 100, 0 no effect, 100 complete control
In short: as §1

[5] = tested on: yellow nutsedge (Cyperus esculentus); details: for pest or weed control at 16 g/ha: 16 g ai/ha
In short: as §1

corn (Zea mays) = details: Preemergence, 16 g ai/ha; scale 0 to 100, 0 no effect, 100 complete control
In short: as §1

[6] = Preemergence, 31 g ai/ha, scale 0 to 100, 0 no effect, 100 complete control
[7] = Preemergence, 62 g ai/ha, scale 0 to 100, 0 no effect, 100 complete control
[8] = Preemergence, 125 g ai/ha, scale 0 to 100
[9] = Chenopodium album, post-emergence, Postemergence, read-out: Plant response rating (scale of 0 to 100), Lambsquarters
[10] = Chenopodium album, pre-emergence, Preemergence, scale 0 to 100, 0 no effect, 100 complete control, read-out: Plant response rating, Lambsquarters

## Nc1nc(C2CC2)nc(C(=O)O)c1Cl [Compound 135, 6-amino-5-chloro-2-cyclopropyl-4-pyrimidinecarboxylic acid]
[1]; Digitaria sanguinalis, post-emergence, Postemergence, read-out: Plant response rating (scale of 0 to 100), Crabgrass
  pest or weed control at 16 g/ha: 65%
[1]; Digitaria sanguinalis, post-emergence, Postemergence, 31 g ai/ha, read-out: Plant response rating (scale of 0 to 100), Crabgrass
  pest or weed control at 31 g/ha: 75%
[1]; Digitaria sanguinalis, post-emergence, Postemergence, 62 g ai/ha, read-out: Plant response rating (scale of 0 to 100), Crabgrass
  pest or weed control at 62 g/ha: 75%
[1]; Digitaria sanguinalis, post-emergence, Postemergence, 125 g ai/ha, scale 0 to 100 (0 no effect, 100 complete control), read-out: Crabgrass plant response rating
  pest or weed control at 125 g/ha: 75%
[1]; Digitaria sanguinalis, pre-emergence, Preemergence, scale 0 to 100, 0 no effect, 100 complete control, read-out: Plant response rating, Crabgrass
  pest or weed control at 16 g/ha: 0%
[1]; [6]
  Plant response rating, Crabgrass: 0
[1]; [7]
  Plant response rating, Crabgrass: 0
[1]; [8]
  Plant response rating, Crabgrass: 5
[2]; [9]
  pest or weed control at 16 g/ha: 60%
  pest or weed control at 62 g/ha: 90%
[2]; Chenopodium album, post-emergence, Postemergence, 31 g ai/ha, read-out: Plant response rating (scale of 0 to 100), Lambsquarters
  pest or weed control at 31 g/ha: 90%
[2]; Chenopodium album, post-emergence, Postemergence, 125 g ai/ha, scale 0 to 100 (0 no effect, 100 complete control), read-out: Lambsquarters plant response rating
  pest or weed control at 125 g/ha: 95%
[2]; [10]
  pest or weed control at 16 g/ha: 0%
  pest or weed control at 62 g/ha: 70%
[2]; [6]
  Plant response rating, Lambsquarters: 70
[2]; [8]
  Plant response rating, Lambsquarters: 90
Kochia (Kochia scoparia); Bassia scoparia, post-emergence, Postemergence, 16 g ai/ha, read-out: Plant response rating (scale of 0 to 100), Kochia
  pest or weed control at 16 g/ha: 75%
Kochia (Kochia scoparia); Bassia scoparia, post-emergence, Postemergence, read-out: Plant response rating (scale of 0 to 100), Kochia
  pest or weed control at 31 g/ha: 90%
Kochia (Kochia scoparia); Bassia scoparia, post-emergence, Postemergence, 62 g ai/ha, read-out: Plant response rating (scale of 0 to 100), Kochia
  pest or weed control at 62 g/ha: 90%
Kochia (Kochia scoparia); Bassia scoparia, post-emergence, Postemergence, 125 g ai/ha, scale 0 to 100 (0 no effect, 100 complete control), read-out: Kochia plant response rating
  pest or weed control at 125 g/ha: 95%
Kochia (Kochia scoparia); Bassia scoparia, pre-emergence, Preemergence, scale 0 to 100, 0 no effect, 100 complete control, read-out: Plant response rating, Kochia
  pest or weed control at 31 g/ha: 75%
Kochia (Kochia scoparia); Preemergence, 16 g ai/ha, scale 0 to 100, 0 no effect, 100 complete control
  Plant response rating, Kochia: 60
Kochia (Kochia scoparia); [7]
  Plant response rating, Kochia: 75
Kochia (Kochia scoparia); [8]
  Plant response rating, Kochia: 100
[3]; 16 g ai/ha, scale 0 to 100, 0 no effect, 100 complete control
  Plant response rating, Cocklebur: 85
[3]; 31 g ai/ha, scale 0 to 100, 0 no effect, 100 complete control
  Plant response rating, Cocklebur: 95
[3]; 62 g ai/ha, scale 0 to 100, 0 no effect, 100 complete control
  Plant response rating, Cocklebur: 95
[3]; 125 g ai/ha, scale 0 to 100
  Plant response rating, Cocklebur: 100
[3]; Xanthium strumarium, post-emergence, Postemergence, 16 g ai/ha, read-out: Plant response rating (scale of 0 to 100), Cocklebur
  pest or weed control at 16 g/ha: 90%
[3]; Xanthium strumarium, post-emergence, Postemergence, 31 g ai/ha, read-out: Plant response rating (scale of 0 to 100), Cocklebur
  pest or weed control at 31 g/ha: 100%
[3]; Xanthium strumarium, post-emergence, Postemergence, 125 g ai/ha, scale 0 to 100 (0 no effect, 100 complete control), read-out: Cocklebur plant response rating
  pest or weed control at 125 g/ha: 100%
[4]; 16 g ai/ha
  Plant response rating, Sunflower: 65
[4]; 31 g ai/ha
  Plant response rating, Sunflower: 70
[4]; 62 g ai/ha
  Plant response rating, Sunflower: 90
[5]; Cyperus, post-emergence, Postemergence, read-out: Plant response rating (scale of 0 to 100), Nutsedge, Yellow
  pest or weed control at 16 g/ha: 0%
[5]; Cyperus, post-emergence, Postemergence, 31 g ai/ha, read-out: Plant response rating (scale of 0 to 100), Nutsedge, Yellow
  pest or weed control at 31 g/ha: 0%
[5]; Cyperus, post-emergence, Postemergence, 62 g ai/ha, read-out: Plant response rating (scale of 0 to 100), Nutsedge, Yellow
  pest or weed control at 62 g/ha: 15%
[5]; Cyperus, post-emergence, Postemergence, 125 g ai/ha, scale 0 to 100 (0 no effect, 100 complete control), read-out: Nutsedge, Yellow plant response rating
  pest or weed control at 125 g/ha: 40%
[5]; Cyperus, pre-emergence, Preemergence, scale 0 to 100, 0 no effect, 100 complete control, read-out: Plant response rating, Nutsedge, Yellow
  pest or weed control at 16 g/ha: 0%
[5]; [6]
  Plant response rating, Nutsedge, Yellow: 0
[5]; [7]
  Plant response rating, Nutsedge, Yellow: 0
Corn (Zea mays)
  Plant response rating, Corn: 5
